A word on the inhibition: it is the change of the read-out against control, counted positive when it falls.

Common to all, as to assay: Large panel kinase profiling
Holding throughout (type): biochemical
Holding throughout (settings): 1 μM test article, 1 mM ATP

For assay [1], the target named is EPHA5 (Homo sapiens, UniProt P54756). Put shortly:
(§1)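 Continuous-read kinase assay: chelation-sensor peptide, 1 mM ATP, compound at 1 μM. Plates kept at 30° C.; fluorescence sampled at 1-min intervals (360/485 nm).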

Assay [2] addresses T1, CDK9/T1 (Homo sapiens, UniProt P50750).
T1 construct: AssayQuant Technologies, Inc. (ran the panel)
The essentials:
as §1

The target of assay [3] is T2, MAP4K5/KSH1 (Homo sapiens, UniProt Q9Y4K4).
T2 construct: AssayQuant Technologies, Inc. (service provider)
T2 sequence (Q9Y4K4 whole entry): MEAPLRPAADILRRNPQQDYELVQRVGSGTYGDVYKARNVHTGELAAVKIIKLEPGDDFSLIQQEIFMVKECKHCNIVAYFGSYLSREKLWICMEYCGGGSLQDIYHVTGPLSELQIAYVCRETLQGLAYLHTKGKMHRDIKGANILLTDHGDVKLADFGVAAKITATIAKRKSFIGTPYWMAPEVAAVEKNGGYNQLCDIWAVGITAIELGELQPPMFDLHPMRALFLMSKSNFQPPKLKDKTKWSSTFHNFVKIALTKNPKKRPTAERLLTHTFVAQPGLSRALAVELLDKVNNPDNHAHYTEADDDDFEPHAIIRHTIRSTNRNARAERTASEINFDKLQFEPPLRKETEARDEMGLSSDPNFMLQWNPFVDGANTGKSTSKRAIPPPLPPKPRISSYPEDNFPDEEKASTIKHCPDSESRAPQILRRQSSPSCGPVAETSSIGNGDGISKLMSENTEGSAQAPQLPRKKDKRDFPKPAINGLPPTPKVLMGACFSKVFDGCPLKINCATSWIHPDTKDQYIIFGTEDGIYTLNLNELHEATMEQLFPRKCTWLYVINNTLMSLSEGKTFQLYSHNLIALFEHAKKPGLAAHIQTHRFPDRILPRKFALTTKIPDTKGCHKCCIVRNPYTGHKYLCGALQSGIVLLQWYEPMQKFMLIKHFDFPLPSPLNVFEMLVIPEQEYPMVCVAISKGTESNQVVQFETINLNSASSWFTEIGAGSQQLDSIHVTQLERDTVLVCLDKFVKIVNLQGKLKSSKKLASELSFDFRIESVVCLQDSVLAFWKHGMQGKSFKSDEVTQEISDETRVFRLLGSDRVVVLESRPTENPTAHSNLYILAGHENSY
The essentials: as §1

The target of assay [4] is T3, MAP4K3/GLK (Homo sapiens, UniProt Q8IVH8).
T3 construct: AssayQuant Technologies, Inc. (service provider)
T3 sequence (Q8IVH8 1-894): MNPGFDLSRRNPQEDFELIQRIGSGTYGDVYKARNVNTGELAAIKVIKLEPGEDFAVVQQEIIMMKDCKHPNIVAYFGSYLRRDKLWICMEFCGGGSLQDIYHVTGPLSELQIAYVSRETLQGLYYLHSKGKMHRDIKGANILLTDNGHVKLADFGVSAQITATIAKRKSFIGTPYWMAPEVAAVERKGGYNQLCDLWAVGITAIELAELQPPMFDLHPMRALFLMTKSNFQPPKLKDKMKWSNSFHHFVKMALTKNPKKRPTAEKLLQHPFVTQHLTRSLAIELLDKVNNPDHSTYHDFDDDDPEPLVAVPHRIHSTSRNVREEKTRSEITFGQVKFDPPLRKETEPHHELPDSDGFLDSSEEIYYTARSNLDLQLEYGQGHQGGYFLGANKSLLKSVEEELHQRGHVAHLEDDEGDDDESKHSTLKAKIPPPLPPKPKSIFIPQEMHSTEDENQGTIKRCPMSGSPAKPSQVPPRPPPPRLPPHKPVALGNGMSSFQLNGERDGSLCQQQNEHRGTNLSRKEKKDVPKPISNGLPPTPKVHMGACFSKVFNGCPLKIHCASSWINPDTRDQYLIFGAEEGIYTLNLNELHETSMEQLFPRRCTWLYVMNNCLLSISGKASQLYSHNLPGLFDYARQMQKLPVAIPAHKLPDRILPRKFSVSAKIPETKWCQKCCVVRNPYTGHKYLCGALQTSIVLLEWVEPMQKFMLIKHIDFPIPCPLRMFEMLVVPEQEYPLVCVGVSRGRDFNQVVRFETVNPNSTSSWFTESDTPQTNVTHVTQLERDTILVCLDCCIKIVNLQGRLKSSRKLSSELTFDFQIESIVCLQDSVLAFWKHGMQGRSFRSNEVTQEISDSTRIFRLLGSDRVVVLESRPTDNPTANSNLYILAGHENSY
The essentials: as §1

The target in assay [5] is T4, CSNK1E/CK1E (Homo sapiens, UniProt P49674).
T4 construct: AssayQuant Technologies, Inc. (service laboratory)
T4 sequence (P49674 whole entry): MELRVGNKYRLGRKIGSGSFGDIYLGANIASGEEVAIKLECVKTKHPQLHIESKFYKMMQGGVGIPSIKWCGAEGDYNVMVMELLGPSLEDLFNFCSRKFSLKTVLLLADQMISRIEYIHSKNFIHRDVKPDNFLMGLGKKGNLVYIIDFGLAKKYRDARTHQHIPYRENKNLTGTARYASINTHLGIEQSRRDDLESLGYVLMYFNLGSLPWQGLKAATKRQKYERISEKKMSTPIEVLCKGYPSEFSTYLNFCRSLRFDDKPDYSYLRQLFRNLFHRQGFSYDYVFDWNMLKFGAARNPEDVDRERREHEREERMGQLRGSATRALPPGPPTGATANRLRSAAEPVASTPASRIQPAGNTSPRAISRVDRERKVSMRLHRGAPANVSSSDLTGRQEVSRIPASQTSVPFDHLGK
Put shortly:
as §1

Assay [6] deals with T5, MAP3K7 (Homo sapiens, UniProt O43318).
T5 construct: AssayQuant Technologies, Inc. (service provider)
T5 sequence (O43318 1-303 limits assumed): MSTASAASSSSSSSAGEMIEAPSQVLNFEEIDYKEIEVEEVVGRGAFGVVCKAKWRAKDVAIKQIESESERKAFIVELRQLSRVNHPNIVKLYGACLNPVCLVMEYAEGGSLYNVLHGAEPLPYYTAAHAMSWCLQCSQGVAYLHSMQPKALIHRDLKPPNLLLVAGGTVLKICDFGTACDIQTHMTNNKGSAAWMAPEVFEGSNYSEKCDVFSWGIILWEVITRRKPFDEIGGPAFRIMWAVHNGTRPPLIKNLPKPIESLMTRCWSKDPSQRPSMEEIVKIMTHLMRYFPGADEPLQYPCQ
Put shortly:
as §1

Each structure is given as a SMILES string.

T1 sequence (P50750 whole entry, species assumed): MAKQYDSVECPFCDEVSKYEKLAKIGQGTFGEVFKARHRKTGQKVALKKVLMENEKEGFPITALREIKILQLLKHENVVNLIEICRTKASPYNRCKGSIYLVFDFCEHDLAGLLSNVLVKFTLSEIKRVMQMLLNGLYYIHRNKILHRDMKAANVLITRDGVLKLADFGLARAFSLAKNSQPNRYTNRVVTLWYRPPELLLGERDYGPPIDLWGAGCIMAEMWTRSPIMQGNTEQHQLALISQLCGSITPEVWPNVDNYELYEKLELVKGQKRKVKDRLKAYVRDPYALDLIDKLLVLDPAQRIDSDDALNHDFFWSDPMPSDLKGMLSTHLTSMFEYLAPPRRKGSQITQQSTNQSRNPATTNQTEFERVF
T1 sequence (O60563 whole entry partner, species assumed): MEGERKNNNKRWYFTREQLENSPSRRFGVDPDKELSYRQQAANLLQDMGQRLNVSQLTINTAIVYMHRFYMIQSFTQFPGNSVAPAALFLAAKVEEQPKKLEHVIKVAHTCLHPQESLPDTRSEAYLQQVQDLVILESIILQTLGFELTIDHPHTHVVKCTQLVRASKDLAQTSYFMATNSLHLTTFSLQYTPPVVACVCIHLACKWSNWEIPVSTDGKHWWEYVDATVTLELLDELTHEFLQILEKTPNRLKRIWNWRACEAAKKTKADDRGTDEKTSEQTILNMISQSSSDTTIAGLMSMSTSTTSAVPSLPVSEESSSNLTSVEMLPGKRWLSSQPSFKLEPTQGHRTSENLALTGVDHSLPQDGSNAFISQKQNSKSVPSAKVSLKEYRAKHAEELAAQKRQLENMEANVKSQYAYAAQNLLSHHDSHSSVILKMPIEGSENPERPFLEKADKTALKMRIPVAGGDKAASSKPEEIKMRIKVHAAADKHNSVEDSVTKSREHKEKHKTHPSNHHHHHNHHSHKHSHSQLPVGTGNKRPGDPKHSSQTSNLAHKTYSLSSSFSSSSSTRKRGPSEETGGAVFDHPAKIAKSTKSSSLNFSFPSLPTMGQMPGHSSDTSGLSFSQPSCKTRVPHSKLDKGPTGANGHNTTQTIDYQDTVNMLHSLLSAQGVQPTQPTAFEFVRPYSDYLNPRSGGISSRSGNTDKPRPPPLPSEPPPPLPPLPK
Chain of EPHA5 (P54756 25-1037, species assumed): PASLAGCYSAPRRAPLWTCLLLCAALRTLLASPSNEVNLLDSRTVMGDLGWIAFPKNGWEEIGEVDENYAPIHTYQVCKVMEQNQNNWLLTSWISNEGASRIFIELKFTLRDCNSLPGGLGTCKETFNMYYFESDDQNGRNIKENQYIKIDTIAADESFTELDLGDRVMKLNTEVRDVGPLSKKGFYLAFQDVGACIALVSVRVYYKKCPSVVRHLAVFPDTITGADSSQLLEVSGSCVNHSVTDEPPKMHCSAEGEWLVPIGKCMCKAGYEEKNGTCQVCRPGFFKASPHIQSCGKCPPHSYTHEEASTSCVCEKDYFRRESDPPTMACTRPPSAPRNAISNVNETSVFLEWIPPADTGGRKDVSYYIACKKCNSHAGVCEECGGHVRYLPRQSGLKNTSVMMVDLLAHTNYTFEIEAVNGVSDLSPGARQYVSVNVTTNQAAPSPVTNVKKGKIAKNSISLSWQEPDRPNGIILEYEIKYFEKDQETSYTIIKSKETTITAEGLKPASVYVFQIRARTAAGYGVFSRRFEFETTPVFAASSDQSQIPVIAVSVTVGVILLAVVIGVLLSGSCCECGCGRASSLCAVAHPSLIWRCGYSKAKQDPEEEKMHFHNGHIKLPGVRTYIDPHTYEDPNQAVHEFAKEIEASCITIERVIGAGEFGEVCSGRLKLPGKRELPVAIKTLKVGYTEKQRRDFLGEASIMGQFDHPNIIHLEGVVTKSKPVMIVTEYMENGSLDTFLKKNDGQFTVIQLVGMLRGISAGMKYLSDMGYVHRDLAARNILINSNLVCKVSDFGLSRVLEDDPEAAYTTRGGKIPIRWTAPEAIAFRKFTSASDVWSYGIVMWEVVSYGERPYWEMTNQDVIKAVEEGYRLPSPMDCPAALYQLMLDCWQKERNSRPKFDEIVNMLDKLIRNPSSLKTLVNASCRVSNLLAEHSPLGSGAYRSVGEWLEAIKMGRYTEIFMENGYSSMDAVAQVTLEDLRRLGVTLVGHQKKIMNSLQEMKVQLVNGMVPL

Consider `C=CC(=O)N1CCCC(c2c(F)cc(C(N)=O)c3[nH]c4c(c23)CCCCC4)C1` (single isomer, unassigned) [Compound 5-6], for which the inhibition at 1 µM in assay [1] was 8.1%; in assay [2], -11%; in assay [3], -1.1%; in assay [4], -7.3%; in assay [5], -4.2%; in assay [6], -19.6%.
For `C=CC(=O)N1CCC[C@@H](c2c(F)cc(C(N)=O)c3[nH]c4c(c23)CC2(CC4)CC2)C1` [Compound 6-2, (S)-5-(1-acryloylpiperidin-3-yl)-6-fluoro-1,2,4,9-tetrahydrospiro[carbazole-3,1′-cyclopropane]-8-carboxamide], the inhibition at 1 µM in assay [1] was 17%; in assay [2] it was -9.9%; in assay [3] it was 4.1%; in assay [4], 6.2%; in assay [5] it was -7.4%; in assay [6], 10%.
On to `C=CC(=O)N1CCC[C@@H](c2c(F)cc(C(N)=O)c3[nH]c4c(c23)CCC4)C1` [Compound 10-2, (S)-8-(1-acryloylpiperidin-3-yl)-7-fluoro-1,2,3,4-tetrahydrocyclo-penta[b]indole-5-carboxamide], for which the inhibition at 1 µM is -13.5% in assay [1]; -26.7% in assay [2]; -4.9% in assay [3]; 5% in assay [4]; 15.1% in assay [5]; 13.2% in assay [6].

The values above are taken from patent US20220009920A1 (GB005, Inc., priority 2020, published 2022).
